Like-named read-outs stand apart in the source and are kept apart here.
Details: in the air, 40° C., relative humidity 60%
Experimental: In order to determine the stability of the novel crystal form of the Form C of (6S)-5-MTHF calcium salt, the crystal form was placed in the air at a temperature of 40° C. and a relative humidity of 60%, and the content of remained (6S)-5-MTHF calcium salt was periodically measured.

(6S)-5-methyltetrahydrofolate calcium salt [Form C]
Stability (overall result in words) (up to 9 days): good stability | Appearance (storage 0 days): White crystal | Content of remained (6S)-5-MTHF calcium salt (storage 0 days): 99.5% | Appearance (storage 3 days): White crystal | Content of remained (6S)-5-MTHF calcium salt (storage 3 days): 99.1% | Appearance (storage 6 days): White crystal | Content of remained (6S)-5-MTHF calcium salt (storage 6 days): 99.1% | Appearance (storage 9 days): White crystal | Content of remained (6S)-5-MTHF calcium salt (storage 9 days): 98.4%

Reference: US9150982B2, “Crystal form of (6S)-5-methyltetrahydrofolate salt and method for preparing same” (LIANYUNGANG JINKANG HEXIN PHARMACEUTICAL CO. LTD., priority 2012, dated 2015)
